Measured values as given in patent US20160256472A1, “COMPOSITIONS AND METHODS OF ADMINISTERING SAME” (PALMAYA PTY LTD, priority 2013, published 2016).
“Also recorded” adds a separate entry of the source.

How the values were obtained:
[1] = system: craving and craving anxiety for smoking, alcohol or drug use; test: Pilot study case reports: craving and craving anxiety after rapid (nasal/sublingual) delivery of micro-doses; assay type: in vivo, human; conditions: Example 7: bupropion 250 micrograms added, nasal delivery
Description: About 40-50 minutes later the craving anxiety for smoking started to climb.
Their craving for smoking and alcohol were linked making smoking more severe during times of alcohol use.
This profound change depends on them giving themself one or two doses before getting out of bed in the morning as this is the most severe craving in the day.
They averaged 20 doses per day.

[2] = in vivo; cited from earlier work
[3] = cited from earlier work
[4] = Oral naltrexone absorption and presence in blood stream; conditions: standard oral administration, one off dose of 50 mg per day
Excerpt: As with all addictions, craving anxiety builds and is then reduced at the time of drug use or when the habit is repeated. The cycle then repeats itself. Craving may present itself with anxiety or in some cases presents itself where the individual places himself in a risky situation or searches for the substance or opportunity for the substance or event.

[5] = system: smoking addiction; conditions: Cochrane review; cited from earlier work
[6] = oral dosage form, 50 mg per day; cited from earlier work

CC(NC(C)(C)C)C(=O)c1cccc(Cl)c1 (stereo not shown) [bupropion]
effect of bupropion on the effectiveness of the flumazenil/naltrexone combination [1]: maximise the effectiveness

CCOC(=O)c1ncn2c1CN(C)C(=O)c1cc(F)ccc1-2 [flumazenil]
half-life [2]: less than one | side effects ([3]; intravenous flumazenil, literature): panic attacks or fitting | safe dose ([3]; intravenous injection, recorded by Mims): up to 100 mg

O=C1CC[C@@]2(O)[C@H]3Cc4ccc(O)c5c4[C@@]2(CCN3CC2CC2)[C@H]1O5 [naltrexone]
time naltrexone is undetectable in the blood stream [4]: 18 hours a day | efficacy in smoking addiction / smoking cessation [5]: does not give any evidence of smoking cessation; also recorded: not effective | time after administration at which oral naltrexone disappears from the blood stream [6]: six
